Data: ChEMBL document CHEMBL3867453, “Total Synthesis of (±)-Isoperbergins and Correction of the Chemical Structure of Perbergin” (2016)
Converted amounts (≈) assume the structure as drawn.

How the values were obtained:
Format in all cases: functional
Rhodococcus fascians = assay: Antibacterial activity against Rhodococcus fascians after 24 hrs by MTT based microdilution assay; settings: Rhodococcoides fascians
[1] = test system: Mycolicibacterium smegmatis; assay: Antibacterial activity against Mycobacterium smegmatis after 48 hrs by MTT based microdilution assay
Staphylococcus aureus = assay: Antibacterial activity against Staphylococcus aureus after 24 hrs by MTT based microdilution assay
Pseudomonas aeruginosa = assay: Antibacterial activity against Pseudomonas aeruginosa after 24 hrs by MTT based microdilution assay
Escherichia coli = assay: Antibacterial activity against Escherichia coli after 24 hrs by MTT based microdilution assay

| MIC (Rhodococcus fascians) | MIC [1] | MIC (Staphylococcus aureus) | MIC (Pseudomonas aeruginosa) | MIC (Escherichia coli) | Compound |
| --- | --- | --- | --- | --- | --- |
| 12.5 µg/mL (≈ 27.5 µM) | 5 µg/mL (≈ 11 µM) | 5 µg/mL (≈ 11 µM) | > 50 µg/mL | > 50 µg/mL | COc1ccc(C2COc3c(C/C=C(/C)CCC=C(C)C)c(O)cc(O)c3C2=O)c(O)c1O (racemic) |
| 12.5 µg/mL (≈ 27.5 µM) | 5 µg/mL (≈ 11 µM) | 5 µg/mL (≈ 11 µM) | > 50 µg/mL | > 50 µg/mL | COc1ccc(C2COc3c(C/C=C(\C)CCC=C(C)C)c(O)cc(O)c3C2=O)c(O)c1O (racemic) |

The remaining lines, values behind:

| Compound | MIC (Rhodococcus fascians) | MIC [1] | MIC (Staphylococcus aureus) | MIC (Pseudomonas aeruginosa) | MIC (Escherichia coli) |
| --- | --- | --- | --- | --- | --- |
| COc1ccc(C2COc3cc(O)cc(O)c3C2=O)c(O)c1O (racemic) | > 50 µg/mL | > 50 µg/mL | > 50 µg/mL | > 50 µg/mL | > 50 µg/mL |
| CC1(C)S[C@@H]2[C@H](NC(=O)[C@H](N)c3ccccc3)C(=O)N2[C@H]1C(=O)O [AMPICILLIN] | 20 µg/mL (≈ 57.2 µM) | > 50 µg/mL | > 50 µg/mL | < 5 µg/mL | < 5 µg/mL |
| CN[C@@H]1[C@@H](O[C@H]2O[C@H](CO)[C@@H](N)[C@H](O)[C@H]2O)O[C@H]2C[C@@H](N)[C@@H](O[C@H]3[C@H](O)[C@@H](O)[C@H](N)C[C@@H]3N)O[C@@H]2[C@@H]1O | 50 µg/mL (≈ 92.7 µM) | 2.5 µg/mL (≈ 4.63 µM) | 30 µg/mL (≈ 55.6 µM) | 50 µg/mL (≈ 92.7 µM) | > 50 µg/mL |
